Patent US6171786A, “Methods for preventing multidrug resistance in cancer cells” (priority 1996, dated 2001)
“Also recorded” adds a separate entry of the source.

Key:
[1] = tested on: hormone-refractory prostate cancer; conditions: continuous infusion, peak of 300 μg/mL at end of 14 days; cited from earlier work
MDR1 expression [2] = conditions: cited from earlier work
tumor = conditions: nude mice, i.p. 20 mg/kg; Grunicke et al.; cited from earlier work
PKC = conditions: in words; cited from earlier work
[3] = clinical trials; Berdel et al., 1988; cited from earlier work
MDR1 expression [4] = test: Inhibition of cytotoxic drug-induced MDR1 expression by cytoplasmic calcium antagonists and calmodulin inhibitors; format: cell-based, human; conditions: H9; 200 μM TMB-8
PC-PLC = conditions: Wiegmann et al., 1994; cited from earlier work
MDR1 expression [5] = test: Inhibition of AraC-induced MDR1 expression by phospholipase C inhibitors (RT-PCR); format: cell-based, human; conditions: up to 100 μg/mL D609
Method: The inhibitor was added 45 min. prior to the addition of Ara C. Negative control cultures were incubated as above without the addition of either AraC or U73122.
The specificity of phospholipase C-targeted inhibition of MDR1 induction by cytotoxic drugs was determined in a comparative experiment using a known inhibitor of […] phospholipase C (PC-PLC).

MDR1 expression [6] = test: Inhibition of cytotoxic drug-induced MDR1 expression by protein kinase inhibitors (cDNA-PCR); conditions: Iso-H7; H-9 cells
protein kinases = conditions: Pelosin et al., 1990; cited from earlier work

Molecule: Cc1ccc(C(=O)Nc2ccc(S(=O)(=O)O)c3cc(S(=O)(=O)O)cc(S(=O)(=O)O)c23)cc1NC(=O)c1cccc(NC(=O)Nc2cccc(C(=O)Nc3cc(C(=O)Nc4ccc(S(=O)(=O)O)c5cc(S(=O)(=O)O)cc(S(=O)(=O)O)c45)ccc3C)c2)c1 [suramin]
- activity in hormone-refractory prostate cancer [1]: has shown activity in hormone-refractory prostate cancer

Molecule: O=c1c(O)c(-c2ccc(O)c(O)c2)oc2cc(O)cc(O)c12 [quercetin]
- effect on arsenite-induced increase in MDR1 expression (MDR1 expression [2]): prevent an increase in MDR1 expression
- effect on anti-tumor effect of cisplatin (tumor): potentiate the anti-tumor effect of cisplatin
- PKC inhibition (PKC): inhibition of PKC activity

Molecule: CCCCCCCCCCCCCCCCSCC(COC)COP(=O)([O-])OCC[N+](C)(C)C (stereo not shown) [ilmofosine]
- MTD, oral administration [3]: 200 mg/day

Molecule: 8-(dimethylamino)octyl-3,4,5-trimethoxybenzoate hydrochloride [TMB-8]
- inhibition of AraC-induced MDR1 gene expression (MDR1 expression [4]): completely abrogate the ability of AraC to induce MDR1 gene expression

Molecule: S=C(S)OC1CC2CC1C1CCCC21 (stereo not shown) [D609, tricyclodecan-9-yl-xanthogenate potassium]
- concentration known to inhibit PC-PLC (PC-PLC): 100 µg/mL
- inhibition of AraC-induced expression of MDR1 (MDR1 expression [5]): without an effect; also recorded: incapable of inhibiting AraC-induced expression of MDR1

Molecule: CC1CN(S(=O)(=O)c2cccc3cnccc23)CCN1 (stereo not shown) [Iso-H7]
- inhibition of Ara-C induced MDR1 expression (MDR1 expression [6]): No significant inhibition
- weaker effect on protein kinases than H7 (protein kinases): 10 fold
